For orientation: Kd means a measure of binding affinity in units of concentration. By IC50 is commonly meant the concentration at which inhibition is half-maximal. A higher IC50 goes with weaker potency.

The text below walks through data of patent publication US20240158446A1, “CYCLIC COMPOUND HAVING SELECTIVE INHIBITORY ACTION ON KRAS OVER HRAS AND NRAS” (CHUGAI SEIYAKU KABUSHIKI KAISHA, priority 2021, published 2024).

Experiment [1] addresses GDP-bound KRAS wild-type protein (Homo sapiens, UniProt P01116). Briefly: Binding to KRAS by surface plasmon resonance (SPR), Single Cycle Kinetics. The note with it: SPR, Single Cycle Kinetics, GDP-bound KRAS wild-type protein; read-out: KRAS KD.
Experiment [2] has as its target GDP-bound NRAS wild-type protein (Homo sapiens, UniProt P01111). Briefly: Binding to NRAS by surface plasmon resonance (SPR), Single Cycle Kinetics. The conditions noted are these: SPR, GDP-bound NRAS wild-type protein vs GDP-bound KRAS wild-type protein. In general terms: In SPR one partner is held on a chip, and binding of the other changes the refractive index at the surface.

The subject of experiment [3] is human lung cancer strain NCI-H441.
The target of experiment [4] is GDP-bound HRAS wild-type protein (Homo sapiens, UniProt P01112). Briefly: Binding to HRAS by surface plasmon resonance (SPR), Single Cycle Kinetics. The conditions noted are these: SPR, GDP-bound HRAS wild-type protein vs GDP-bound KRAS wild-type protein.
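Wherever IC50 is given: cell proliferation inhibition after four days measured by CellTiter-Glo.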

GDP-bound KRAS wild-type protein, sequence (P01116 whole entry): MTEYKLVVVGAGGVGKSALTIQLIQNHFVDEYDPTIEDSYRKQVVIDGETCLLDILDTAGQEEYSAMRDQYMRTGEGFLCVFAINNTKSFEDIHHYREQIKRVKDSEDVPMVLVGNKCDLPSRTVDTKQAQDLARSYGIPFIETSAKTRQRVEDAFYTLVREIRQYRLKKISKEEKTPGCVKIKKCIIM
GDP-bound NRAS wild-type protein, sequence (P01111 whole entry): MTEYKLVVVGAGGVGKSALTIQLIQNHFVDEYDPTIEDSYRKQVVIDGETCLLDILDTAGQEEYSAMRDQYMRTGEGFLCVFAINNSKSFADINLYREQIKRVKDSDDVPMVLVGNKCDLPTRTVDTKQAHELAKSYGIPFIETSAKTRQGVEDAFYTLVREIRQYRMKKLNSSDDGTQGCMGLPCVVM
GDP-bound HRAS wild-type protein, sequence (P01112 whole entry): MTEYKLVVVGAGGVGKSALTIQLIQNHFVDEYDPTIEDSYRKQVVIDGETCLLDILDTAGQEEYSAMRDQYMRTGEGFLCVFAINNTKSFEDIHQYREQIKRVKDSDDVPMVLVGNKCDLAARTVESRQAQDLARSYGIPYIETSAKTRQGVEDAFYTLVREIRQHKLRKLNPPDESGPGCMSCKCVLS

On to `CC[C@H](C)[C@@H]1NC(=O)[C@H](CC)N(C)C(=O)C[C@@H](C(=O)N(C)C)N(C)C(=O)[C@H](C2CCCC2)N(C)C(=O)C2(CCC2)NC(=O)[C@@H]2CCCN2C(=O)[C@H](CCc2cc(F)c(C(F)(F)F)c(F)c2)NC(=O)CN(C)C(=O)[C@H](Cc2ccc(C(F)(F)F)cc2)N2CC/C=C\C[C@@H](C2=O)N(C)C(=O)CN(C)C1=O` [PP1135, (2S,8S,14S,20S,23S,27S,30S,36S,38Z)-20-cyclopentyl-8-[2-[3,5-difluoro-4-(trifluoromethyl)phenyl]ethyl]-27-ethyl-N,N,4,19,22,26,32,35-octamethyl-30-[(1S)-1-methylpropyl]-3,6,9,15,18,21,25,28,31,34,42-undecaoxo-2-[[4-(trifluoromethyl)phenyl]methyl]spiro[1,4,7,10,16,19,22,26,29,32,35-undecazatricyclo[34.5.1.0^10,14]dotetracont-38-ene-17,1′-cyclobutane]-23-carboxamide], for which the Kd in experiment [1] was 0.094 nM. Besides, in experiment [2], the “NRAS/KRAS (ratio of KD value for NRAS to KD value for KRAS)” value is “A (a compound having 10 or more and less than 20 is denoted as A)”. It took 43.9 nM to reach half-maximal inhibition in experiment [3] (IC50). Further, the “HRAS/KRAS (ratio of KD value for HRAS to KD value for KRAS)” value in experiment [4] was “A (a compound having 10 or more and less than 20 is denoted as A)”.

For `CC[C@H](C)[C@@H]1NC(=O)[C@H](CC)N(C)C(=O)C[C@@H](C(=O)N(C)C)N(C)C(=O)[C@H](C2CCCC2)N(C)C(=O)C2(CCC2)NC(=O)[C@@H]2CCCCN2C(=O)[C@H](CCc2cc(F)c(C(F)(F)F)c(F)c2)NC(=O)CN(C)C(=O)[C@H](Cc2ccc(C(F)(F)F)cc2)N2CC/C=C\C[C@@H](C2=O)N(C)C(=O)CN(C)C1=O` [PP1136, (2S,8S,15S,21S,24S,28S,31S,37S,39Z)-21-cyclopentyl-8-[2-[3,5-difluoro-4-(trifluoromethyl)phenyl]ethyl]-28-ethyl-N,N,4,20,23,27,33,36-octamethyl-31-[(1S)-1-methylpropyl]-3,6,9,16,19,22,26,29,32,35,43-undecaoxo-2-[[4-(trifluoromethyl)phenyl]methyl]spiro[1,4,7,10,17,20,23,27,30,33,36-undecazatricyclo[35.5.1.0^10,1^5]tritetracont-39-ene-18,1′-cyclobutane]-24-carboxamide], the Kd in experiment [1] stood at 0.14 nM. Further, the “NRAS/KRAS (ratio of KD value for NRAS to KD value for KRAS)” value in experiment [2] is “A (a compound having 10 or more and less than 20 is denoted as A)”. The IC50 in experiment [3] was 193 nM. Further, the “HRAS/KRAS (ratio of KD value for HRAS to KD value for KRAS)” value in experiment [4] is “A (a compound having 10 or more and less than 20 is denoted as A)”.

Turning to `CC[C@H](C)[C@@H]1NC(=O)[C@H](CC)N(C)C(=O)C[C@@H](C(=O)N(C)C)N(C)C(=O)[C@H](C2CCCC2)N(C)C(=O)C2(CCC2)NC(=O)[C@@H]2CSCCN2C(=O)[C@H](CCc2cc(F)c(C(F)(F)F)c(F)c2)NC(=O)CN(C)C(=O)[C@H](Cc2ccc(C(F)(F)F)cc2)N2CC/C=C\C[C@@H](C2=O)N(C)C(=O)CN(C)C1=O` [PP1137, (2S,8S,15R,21S,24S,28S,31S,37S,39Z)-21-cyclopentyl-8-[2-[3,5-difluoro-4-(trifluoromethyl)phenyl]ethyl]-28-ethyl-N,N,4,20,23,27,33,36-octamethyl-31-[(1S)-1-methylpropyl]-3,6,9,16,19,22,26,29,32,35,43-undecaoxo-2-[[4-(trifluoromethyl)phenyl]methyl]spiro[13-thia-1,4,7,10,17,20,23,27,30,33,36-undecazatricyclo[35.5.1.0^10,1^5]tritetracont-39-ene-18,1′-cyclobutane]-24-carboxamide], the Kd in experiment [1] came to 0.11 nM. In addition, the “NRAS/KRAS (ratio of KD value for NRAS to KD value for KRAS)” value in experiment [2] is on record as “AA (a compound having 20 or more is denoted as AA)”. The IC50 in experiment [3] was 142 nM. Also, in experiment [4], the “HRAS/KRAS (ratio of KD value for HRAS to KD value for KRAS)” value was “A (a compound having 10 or more and less than 20 is denoted as A)”.

Take `CC[C@H](C)[C@@H]1NC(=O)[C@H](CC)N(C)C(=O)C[C@@H](C(=O)N(C)C)N(C)C(=O)[C@H](C2CCCC2)N(C)C(=O)C2(CCC2)NC(=O)[C@@H]2COCCN2C(=O)[C@H](CCc2cc(F)c(C(F)(F)F)c(F)c2)NC(=O)CN(C)C(=O)[C@H](Cc2ccc(C(F)(F)F)cc2)N2CC/C=C\C[C@@H](C2=O)N(C)C(=O)CN(C)C1=O` [PP1138]: the Kd in experiment [1] was 0.19 nM. Moreover, the “NRAS/KRAS (ratio of KD value for NRAS to KD value for KRAS)” value in experiment [2] is “A (a compound having 10 or more and less than 20 is denoted as A)”. This compound also came in with an IC50 in experiment [3] of 244 nM. In addition, in experiment [4], the “HRAS/KRAS (ratio of KD value for HRAS to KD value for KRAS)” value was “A (a compound having 10 or more and less than 20 is denoted as A)”.

Regarding `CC[C@H](C)[C@@H]1NC(=O)[C@H](CC)N(C)C(=O)C[C@@H](C(=O)N(C)C)N(C)C(=O)[C@H](C2CCCC2)N(C)C(=O)C2(CCC2)NC(=O)[C@@H]2CCN2C(=O)[C@H](CCc2cc(F)c(C(F)(F)F)c(F)c2)NC(=O)CN(C)C(=O)[C@H](Cc2ccc(C(F)(F)F)cc2)N2CC/C=C\C[C@@H](C2=O)N(C)C(=O)CN(C)C1=O` [PP1139], the Kd in experiment [1] was 0.43 nM. In addition, the “NRAS/KRAS (ratio of KD value for NRAS to KD value for KRAS)” value in experiment [2] is “A (a compound having 10 or more and less than 20 is denoted as A)”. In experiment [3], the midpoint of inhibition, the IC50, lay at 297 nM. Besides, the “HRAS/KRAS (ratio of KD value for HRAS to KD value for KRAS)” value in experiment [4] was “A (a compound having 10 or more and less than 20 is denoted as A)”.

Consider `CC[C@H](C)[C@@H]1NC(=O)[C@H](CC)N(C)C(=O)C[C@@H](C(=O)N(C)C)N(C)C(=O)[C@H](C2CCCC2)N(C)C(=O)C2(CCC2)NC(=O)[C@H](C)NC(=O)[C@H](CCc2cc(F)c(C(F)(F)F)c(F)c2)NC(=O)CN(C)C(=O)[C@H](Cc2ccc(C(F)(F)F)cc2)N2CC/C=C\C[C@@H](C2=O)N(C)C(=O)CN(C)C1=O` [PP1140, (2S,8S,11S,17S,20S,24S,27S,33S,35Z)-17-cyclopentyl-8-[2-[3,5-difluoro-4-(trifluoromethyl)phenyl]ethyl]-24-ethyl-N,N,4,11,16,19,23,29,32-nonamethyl-27-[(1S)-1-methylpropyl]-3,6,9,12,15,18,22,25,28,31,39-undecaoxo-2-[[4-(trifluoromethyl)phenyl]methyl]spiro[1,4,7,10,13,16,19,23,26,29,32-undecazabicyclo[31.5.1]nonatriacont-35-ene-14,1′-cyclobutane]-20-carboxamide], for which the Kd in experiment [1] came to 0.15 nM. Moreover, in experiment [2], the “NRAS/KRAS (ratio of KD value for NRAS to KD value for KRAS)” value was “A (a compound having 10 or more and less than 20 is denoted as A)”. Besides, in experiment [3], the IC50 worked out at 1780 nM. Moreover, the “HRAS/KRAS (ratio of KD value for HRAS to KD value for KRAS)” value in experiment [4] is “A (a compound having 10 or more and less than 20 is denoted as A)”.

For the compound `CCCN1CC(=O)NC2(CCC2)C(=O)N(C)[C@@H](C2CCCC2)C(=O)N(C)[C@H](C(=O)N(C)C)CC(=O)N(C)[C@@H](CC)C(=O)N[C@@H]([C@@H](C)CC)C(=O)N(C)CC(=O)N(C)[C@H]2C/C=C\CCN(C2=O)[C@@H](Cc2ccc(C(F)(F)F)cc2)C(=O)N(C)CC(=O)N[C@@H](CCc2cc(F)c(C(F)(F)F)c(F)c2)C1=O` [PP1141], in experiment [1], the Kd was determined as 0.32 nM. Further, the “NRAS/KRAS (ratio of KD value for NRAS to KD value for KRAS)” value in experiment [2] is reported as “AA (a compound having 20 or more is denoted as AA)”. This compound also displayed an IC50 in experiment [3] of 424 nM. In addition, the “HRAS/KRAS (ratio of KD value for HRAS to KD value for KRAS)” value in experiment [4] was “A (a compound having 10 or more and less than 20 is denoted as A)”.

Consider `CCCCN1CC(=O)NC2(CCC2)C(=O)N(C)[C@@H](C2CCCC2)C(=O)N(C)[C@H](C(=O)N(C)C)CC(=O)N(C)[C@@H](CC)C(=O)N[C@@H]([C@@H](C)CC)C(=O)N(C)CC(=O)N(C)[C@H]2C/C=C\CCN(C2=O)[C@@H](Cc2ccc(C(F)(F)F)cc2)C(=O)N(C)CC(=O)N[C@@H](CCc2cc(F)c(C(F)(F)F)c(F)c2)C1=O` [PP1142], for which the Kd in experiment [1] was 0.65 nM. In experiment [2], the “NRAS/KRAS (ratio of KD value for NRAS to KD value for KRAS)” value is “A (a compound having 10 or more and less than 20 is denoted as A)”. The compound also registered an IC50 in experiment [3] of 322 nM. In experiment [4], the “HRAS/KRAS (ratio of KD value for HRAS to KD value for KRAS)” value is “A (a compound having 10 or more and less than 20 is denoted as A)”.

Turning to `CC[C@H](C)[C@@H]1NC(=O)[C@H](CC)N(C)C(=O)C[C@@H](C(=O)N(C)C)N(C)C(=O)[C@H](C2CCCC2)N(C)C(=O)C2(CCC2)NC(=O)CN(CC)C(=O)[C@H](CCc2cc(F)c(C(F)(F)F)c(F)c2)NC(=O)CN(C)C(=O)[C@H](Cc2ccc(C(F)(F)F)cc2)N2CC/C=C\C[C@@H](C2=O)N(C)C(=O)CN(C)C1=O` [PP1143], the Kd in experiment [1] came to 0.17 nM. Besides, the “NRAS/KRAS (ratio of KD value for NRAS to KD value for KRAS)” value in experiment [2] was “A (a compound having 10 or more and less than 20 is denoted as A)”. Besides, in experiment [3], the IC50 came out at 75.3 nM. Moreover, the “HRAS/KRAS (ratio of KD value for HRAS to KD value for KRAS)” value in experiment [4] was “A (a compound having 10 or more and less than 20 is denoted as A)”.

In the case of `CC[C@H](C)[C@@H]1NC(=O)[C@H](CC)N(C)C(=O)C[C@@H](C(=O)N(C)C)N(C)C(=O)[C@H](C2CCCC2)N(C)C(=O)C2(CCC2)NC(=O)[C@H](COC)N(C)C(=O)[C@H](CCc2cc(F)c(C(F)(F)F)c(F)c2)NC(=O)CN(C)C(=O)[C@H](Cc2ccc(C(F)(F)F)cc2)N2CC/C=C\C[C@@H](C2=O)N(C)C(=O)CN(C)C1=O` [PP1145], in experiment [1], the Kd was 0.21 nM. For the same compound, the “NRAS/KRAS (ratio of KD value for NRAS to KD value for KRAS)” value in experiment [2] was “A (a compound having 10 or more and less than 20 is denoted as A)”. This compound also registered an IC50 in experiment [3] of 140 nM. Further, the “HRAS/KRAS (ratio of KD value for HRAS to KD value for KRAS)” value in experiment [4] is “B (a compound having 3 or more and less than 10 is denoted as B)”.

As for `CC[C@H](C)[C@@H]1NC(=O)[C@H](CC)N(C)C(=O)C[C@@H](C(=O)N(C)C)N(C)C(=O)[C@H](C2CCCC2)N(C)C(=O)C2(CCC2)NC(=O)[C@H](C)N(C)C(=O)[C@H](CCc2cc(F)c(C(F)(F)F)c(F)c2)NC(=O)CN(C)C(=O)[C@H](Cc2ccc(C(F)(F)F)cc2)N2CC/C=C\C[C@@H](C2=O)N(C)C(=O)CN(C)C1=O` [PP1146], in experiment [1], the Kd was determined as 0.32 nM. Further, in experiment [2], the “NRAS/KRAS (ratio of KD value for NRAS to KD value for KRAS)” value was “A (a compound having 10 or more and less than 20 is denoted as A)”. In experiment [3], this compound returned an IC50 of 202 nM. Also, in experiment [4], the “HRAS/KRAS (ratio of KD value for HRAS to KD value for KRAS)” value was “B (a compound having 3 or more and less than 10 is denoted as B)”.
